Measured values taken from patent publication US7615380B2, “Methods for modulating an immune response by modulating KRC activity” (President and Fellows of Harvard College, priority 2001, dated 2009).

Experiments:
c-Jun/c-Fos AP-1 = assay: c-Jun/c-Fos protein stability time course with cycloheximide; type: cell-based
Protocol: The above experiments mapped the interaction site of KRC with c-Jun to aa 204-1055 of KRC. The interaction of full-length KRC with c-Jun was tested. […] Time course experiments were performed in which overexpressed sense KRC or an antisense KRC previously shown to block production of endogenous KRC protein were coimmunoprecipitated with overexpressed c-Jun and c-Fos. […] The same set of experiments were performed using c-Fos, a very short-lived cellular protein. […] The ability of KRC to promote the degradation of other fos family members Fra1, Fra2 and Fos B was also tested (FIG. 23(D)). […] The protein stability of V-fos was not affected by altering levels of KRC by sense or antisense overexpression.

NIH 3T3 cells = assay: β-galactosidase cotransfection apoptosis assay in 3T3 cells; type: cell-based; conditions: TNFα 20 ng/ml
Protocol: 3T3 cells were cotransfected with CMV lacZ vector (300 ng per plate) and either empty expression vector or the expression vectors indicated (2 μg of each). Half of the transfected cultured cells were treated with TNFα (20 ng/ml) at 12 hours after the transfection and the other half left untreated. All the cells were fixed and stained at 36 hours after the transfection. The number of blue cells in each transfection was determined by counting six different fields. A representative experiment of three performed is presented.
β-galactosidase cotransfection assays for determination of cell death were performed as described (Hsu, et al.). Transfected NIH 3T3 cells were washed with PBS, fixed in PBS containing 3% paraformaldehyde for 10 min at 4° C., and washed with PBS. Fixed cells were stained overnight with XGal. The number of blue-stained cells was determined microscopically. The average number from one representative experiment of three is shown.

MAPK (ERK, p38, JNK) = assay: MAPK activity in Jurkat cells (PathDetect reporter, immunoprecipitation-kinase assay); type: cell-based, human
Protocol: FIG. 20(A) Jurkat cells were transiently transfected with AP-1 Luciferase reporter along with KRC and RasN17 DN vectors. 24 hours later cells were pretreated with Rottlerin (10 μM) and stimulated for 6 hours with PMA plus ionomycin. Luciferase activity was measured as above. FIG. 20(B) Jurkat cells were transfected with a GAL4 Luciferase reporter along with a GAL4 DNA binding domain, GAL4-ATF2, or GAL4-ELK1 with or without KRC. 24 hours later, cells were stimulated with PMA plus ionomycin and analyzed for Luciferase activity as above. FIG. 20(C) Jurkat cells were transiently transfected with FLAG-JNK2, and either Vector, KRC, or MKK7. 48 hours later, cells were stimulated with PMA plus ionomycin for 6 hours and JNK activity was determined by immunoprecipitation/kinase assay. […]
KRC may enhance AP-1 function indirectly through the modulation of MAPK activity, kinases downstream of Ras that are known to potently stimulate AP-1 function (Binetruy, B., et al. (1991) Nature 351:122-127; Deng, T., and M. Karin (1994) Nature 371:171-175; Murphy, L., et al. (2002) Nat. Cell Biol. 4: 556-564). […] Co-expression of KRC with HA-ERK1, myc-ERK2, Flag-P38 and Flag-JNK2 was performed and the activity of each kinase was measured using an immunoprecipitation-kinase assay with specific substrates, GST-Elk1, GST-ATF2 and GST-Jun for each MAPK. […]

IL-2 = IL-2 ELISA in stably transfected Jurkat clones; type: cell-based, human; conditions: stable Jurkat clones, PMA and ionomycin
Protocol: In panel A Jurkat T cells were stably transfected with vector (pEF) or KRC expression plasmids. Stable clones were stimulated for 18 hours with PMA (50 ng/mL) plus ionomycin (2 μM) and IL-2 production was measured by ELISA. In panel B Primary CD4+ T cells were activated for 36 hours and subsequently transduced with control (RV), KRC, or KRC dominant negative (ZAS2) bicistronic GFP-expressing retroviruses. GFP-positive cells were sorted and stimulated for 24 hours with anti-CD3 or anti-CD3/anti-CD28 antibodies and IL-2 production was measured by ELISA. In panel C CD4 T cells from KRC +/+ or −/− mice were stimulated with anti-CD3 (1.0 μg/mL)/CD28 (0.5 μg/mL) antibodies for 24 hours and IL-2 production was measured by ELISA. In panel D CD4 T cells from KRC +/+ or −/− mice were stimulated with anti-CD3/CD28 antibodies for 72 hours in the presence of 200 U/mL human IL-2. IFNγ production was measured by ELISA.
In this example, increased IL-2 production in Jurkat T cells stably expressing KRC was measured by ELISA. IL-2 promoter activation requires antigen receptor engagement plus an accessory signal usually supplied by an antigen presenting cell (Jain, J., et al. (1995) Curr. Biol. 7:333-342). […] G418 drug-resistant Jurkat clones were expanded and analyzed for IL-2 secretion following activation.

CD69 = CD69 expression by FACS in transfected Jurkat T cells; type: cell-based, human
Protocol: KRC was transfected into Jurkat T cells and CD69 expression was measured by FACS analysis.

**Q.** “KRC: full-length KRC zinc finger protein (SEQ ID NO:2) overexpressed from an expression vector” was tested. Which c-Jun degradation (c-Jun/c-Fos AP-1; low dose cycloheximide) did it give?
**A.** rapid degradation of c-Jun

**Q.** What about the “stability of the c-Fos protein” value (c-Jun/c-Fos AP-1; presence of cycloheximide) of the same substance?
**A.** compromised

**Q.** And the “TNFα-induced apoptosis (TNF mediated cytotoxicity)” value (NIH 3T3 cells)?
**A.** increase in TNF mediated cytotoxicity

**Q.** And the “MAPK activity, immunoprecipitation-kinase assay” value (MAPK (ERK, p38, JNK); ERK1, ERK2, P38, JNK2)?
**A.** no detectable effect on any of the MAPKs

**Q.** What about the “MAPK / p38 activity, PathDetect reporter (ELK-1, ATF2)” value (MAPK (ERK, p38, JNK); Jurkat cells) of the same substance?
**A.** unable to modulate either MAPK or p38 activity

**Q.** What about the IL-2 production (IL-2) of the same substance?
**A.** substantially greater amounts of IL-2

**Q.** What about the CD69 expression (CD69) of the same substance?
**A.** increases expression of CD69
